Laboratory results as given in patent US9815850B2, “Compounds, compositions and methods” (Denali Therapeutics Inc., priority 2016, dated 2017).

Molecular target: GST-hRIPK1 (8-327) (Homo sapiens (Human), UniProt Q13546)
Assay: Fluorescent Polarization Binding (FP Binding) assay
Conditions: 10 nM GST-hRIPK1 (8-327), 5 nM fluorescent labeled ligand; read-out: FP IC50
Method: Fluorescent Polarization Binding (FP Binding) assay (Berger S. B. et al. […] Maki J. L. et al. […] Test Compounds were serially diluted in DMSO at 100 fold final concentrations in the assay (1% DMSO final). […] For negative control the enzyme addition was replaced by assay buffer only. After addition of 5 μL of fluorescent labeled ligand at twice the final concentrations in assay buffer, the plate was incubated at RT for 30 min.

Chain of GST-hRIPK1 (8-327) (Q13546 8-327): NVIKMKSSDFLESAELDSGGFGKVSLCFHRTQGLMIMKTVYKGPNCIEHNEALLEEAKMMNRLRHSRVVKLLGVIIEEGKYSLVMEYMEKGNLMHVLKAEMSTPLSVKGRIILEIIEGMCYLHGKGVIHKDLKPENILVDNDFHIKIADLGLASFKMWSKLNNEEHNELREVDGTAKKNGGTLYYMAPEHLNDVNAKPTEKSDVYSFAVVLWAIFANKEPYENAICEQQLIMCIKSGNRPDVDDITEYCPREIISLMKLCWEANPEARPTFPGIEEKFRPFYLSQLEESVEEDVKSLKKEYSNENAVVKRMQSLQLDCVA

For `CN1C(=O)[C@H](NC(=O)c2nnc(Cc3ccccc3)[nH]2)C[C@H](F)c2ccccc21` (mixture of isomers) [Example 11B], the IC50 was 1 to 10 µM.
Work on `CN1C(=O)[C@@H](NC(=O)c2cc(Cc3ccccc3)on2)CCc2sc(Cl)cc21` (stereo in doubt) [Example 1A, 5-Benzyl-N-(2-chloro-4-methyl-5-oxo-4H,5H,6H,7H,8H-thieno[3,2-b]azepin-6-yl)-1,2-oxazole-3-carboxamide] yielded an IC50 of 0.0001 to 1 µM.
`CN1C(=O)[C@H](NC(=O)c2cc(Cc3ccccc3)on2)CCc2sc(Cl)cc21` (stereo in doubt) [Example 1B, 5-Benzyl-N-(2-chloro-4-methyl-5-oxo-4H,5H,6H,7H,8H-thieno[3,2-b]azepin-6-yl)-1,2-oxazole-3-carboxamide] was tested, and the IC50 was 0.0001 to 1 µM.
`CN1C(=O)C(NC(=O)c2cc(Cc3ccccc3)on2)[C@@H]2C[C@@H]2c2ccccc21` (stereo in doubt) [Example 7B, 5-benzyl-N-((2S)-4-methyl-3-oxo-1,1a,2,3,4,8b-hexahydrobenzo[b]cyclopropa[d]azepin-2-yl)isoxazole-3-carboxamide] showed an IC50 of over 10 µM.
With `CN1C(=O)C(NC(=O)c2cc(Cc3ccccc3)on2)CC(F)c2ccccc21` (stereo not shown) [Example 2B, 5-benzyl-N-(5-fluoro-1-methyl-2-oxo-2,3,4,5-tetrahydro-1H-benzo[b]azepin-3-yl)isoxazole-3-carboxamide] the IC50 was 0.0001 to 1 µM.
`CN1C(=O)[C@@H](NC(=O)c2cc(Cc3ccccc3)on2)[C@H]2C[C@H]2c2ccccc21` [Example 7A, 5-benzyl-N-((2S)-4-methyl-3-oxo-1,1a,2,3,4,8b-hexahydrobenzo[b]cyclopropa[d]azepin-2-yl)isoxazole-3-carboxamide] gave an IC50 of 0.0001 to 1 µM.
`CN1C(=O)[C@@H](NC(=O)c2nnc(Cc3ccccc3)[nH]2)C[C@@H](F)c2ccccc21` [Example 11A] gave an IC50 of 0.0001 to 1 µM.
With `CN1C(=O)[C@@H](NC(=O)c2nnc(Cc3ccccc3)[nH]2)C[C@H](F)c2ccccc21` [Example 12A] the IC50 was 0.0001 to 1 µM.
In the case of `CN1C(=O)[C@H](NC(=O)c2nnc(Cc3ccccc3)[nH]2)C[C@@H](F)c2ccccc21` [Example 12B], the IC50 is reported as 0.0001 to 1 µM.
Molecule `CN1C(=O)[C@@H](NC(=O)c2cc(Cc3ccccc3)[nH]n2)CC2(CC2)c2ccccc21` [Example 59, 5-benzyl-N-[(3S)-1-methyl-2-oxo-1,2,3,4-tetrahydrospiro[l-benzazepine-5,1-cyclopropane]-3-yl]-1H-pyrazole-3-carboxamide] has an IC50 of 0.0001 to 1 µM.
For `CN1C(=O)[C@@H](NC(=O)c2cc(Cc3ccccc3)[nH]n2)[C@H]2C[C@H]2c2ccccc21` [Example 60A, 5-benzyl-N-((1aS,2S,8bR)-4-methyl-3-oxo-1,1a,2,3,4,8b-hexahydrobenzo[b]cyclopropa[d]azepin-2-yl)-1H-pyrazole-3-carboxamide], the IC50 was 0.0001 to 1 µM.
`CN1C(=O)[C@H](NC(=O)c2cc(Cc3ccccc3)[nH]n2)[C@@H]2C[C@@H]2c2ccccc21` [Example 60B, 5-benzyl-N-((1aR,2R,8bS)-4-methyl-3-oxo-1,1a,2,3,4,8b-hexahydrobenzo[b]cyclopropa[d]azepin-2-yl)-1H-pyrazole-3-carboxamide] gave an IC50 of over 3 µM.
Work on `CN1C(=O)[C@@H](NC(=O)c2coc(C3(c4ccccc4)CC3)n2)COc2ccccc21` [Example 61, (S)—N-(5-methyl-4-oxo-2,3,4,5-tetrahydrobenzo[b][1,4]oxazepin-3-yl)-2-(1-phenylcyclopropyl)oxazole-4-carboxamide] yielded an IC50 of 0.0001 to 1 µM.
`O=C(N[C@H]1COc2cccnc2NC1=O)c1cc(C2(c3ccccc3)CC2)on1` [Example 62, (S)—N-(4-oxo-2,3,4,5-tetrahydropyrido[3,2-b][1,4]oxazepin-3-yl)-5-(1-phenylcyclopropyl)isoxazole-3-carboxamide] showed an IC50 of 0.0001 to 1 µM.
`CN1C(=O)[C@@H](NC(=O)c2ncc(C3(c4ccccc4)CC3)s2)COc2cccnc21` [Example 63, (S)—N-(5-methyl-4-oxo-2,3,4,5-tetrahydropyrido[3,2-b][1,4]oxazepin-3-yl)-5-(1-phenylcyclopropyl)thiazole-2-carboxamide] showed an IC50 of 0.0001 to 1 µM.
For `CN1C(=O)[C@@H](NC(=O)c2nn(Cc3ccccc3)cc2F)COc2ccccc21` [Example 64, (S)-1-benzyl-4-fluoro-N-(5-methyl-4-oxo-2,3,4,5-tetrahydrobenzo[b][1,4]oxazepin-3-yl)-1H-pyrazole-3-carboxamide], the IC50 was 0.0001 to 1 µM.
In the case of `CN1C(=O)[C@@H](NC(=O)c2nnc(Cc3ccccc3)[nH]2)[C@@H]2C[C@@H]2c2ccccc21` [Example 67A, 5-benzyl-N-((1aR,2S,8bS)-4-methyl-3-oxo-1,1a,2,3,4,8b-hexahydrobenzo[b]cyclopropa[d]azepin-2-yl)-4H-1,2,4-triazole-3-carboxamide], the IC50 is reported as 0.0001 to 1 µM.
For `CN1C(=O)[C@H](NC(=O)c2nnc(Cc3ccccc3)[nH]2)[C@H]2C[C@H]2c2ccccc21` [Example 67B, 5-benzyl-N-((1aS,2R,8bR)-4-methyl-3-oxo-1,1a,2,3,4,8b-hexahydrobenzo[b]cyclopropa[d]azepin-2-yl)-4H-1,2,4-triazole-3-carboxamide], the IC50 was over 3 µM.
`O=C(N[C@H]1COc2ccccc2-n2ccnc21)c1nnc(Cc2ccccc2)[nH]1` [Example 68A, (R)-5-benzyl-N-(4,5-dihydrobenzo[b]imidazo[1,2-d][1,4]oxazepin-4-yl)-4H-1,2,4-triazole-3-carboxamide] was tested, and the IC50 was 0.0001 to 1 µM.
For `O=C(N[C@@H]1COc2ccccc2-n2ccnc21)c1nnc(Cc2ccccc2)[nH]1` [Example 68B, (S)-5-benzyl-N-(4,5-dihydrobenzo[b]imidazo[1,2-d][1,4]oxazepin-4-yl)-4H-1,2,4-triazole-3-carboxamide], the IC50 was over 3 µM.
Molecule `O=C(N[C@H]1CCc2ccccc2-n2cnnc21)c1nnc(Cc2ccccc2)[nH]1` [Example 69A, (S)-5-benzyl-N-(5,6-dihydro-4H-benzo[f][1,2,4]triazolo[4,3-a]azepin-4-yl)-4H-1,2,4-triazole-3-carboxamide] has an IC50 of 0.0001 to 1 µM.
For `O=C(N[C@@H]1CCc2ccccc2-n2cnnc21)c1nnc(Cc2ccccc2)[nH]1` [Example 69B, (R)-5-benzyl-N-(5,6-dihydro-4H-benzo[f][1,2,4]triazolo[4,3-a]azepin-4-yl)-4H-1,2,4-triazole-3-carboxamide], the IC50 was over 3 µM.
Work on `O=C(N[C@H]1COc2ccccc2-n2ccnc21)c1cc(Cc2ccccc2)on1` [Example 70A, (R)-5-benzyl-N-(4,5-dihydrobenzo[b]imidazo[1,2-d][1,4]oxazepin-4-yl)isoxazole-3-carboxamide] yielded an IC50 of 0.0001 to 1 µM.
Work on `O=C(N[C@@H]1COc2ccccc2-n2ccnc21)c1cc(Cc2ccccc2)on1` [Example 70B, (S)-5-benzyl-N-(4,5-dihydrobenzo[b]imidazo[1,2-d][1,4]oxazepin-4-yl)isoxazole-3-carboxamide] yielded an IC50 of over 3 µM.
For `O=C(N[C@H]1CCc2ccccc2-n2cnnc21)c1cc(Cc2ccccc2)on1` [Example 71A, (S)-5-benzyl-N-(5,6-dihydro-4H-benzo[f][1,2,4]triazolo[4,3-a]azepin-4-yl)isoxazole-3-carboxamide], the IC50 was 0.0001 to 1 µM.
Work on `O=C(N[C@@H]1CCc2ccccc2-n2cnnc21)c1cc(Cc2ccccc2)on1` [Example 71B, (R)-5-benzyl-N-(5,6-dihydro-4H-benzo[f][1,2,4]triazolo[4,3-a]azepin-4-yl)isoxazole-3-carboxamide] yielded an IC50 of over 3 µM.
Work on `CN1C(=O)[C@@H](NC(=O)c2cc(C3(c4ccccc4)CC3)[nH]n2)COc2ccccc21` [Example 72, (S)—N-(5-methyl-4-oxo-2,3,4,5-tetrahydrobenzo[b][1,4]oxazepin-3-yl)-5-(1-phenylcyclopropyl)-1H-pyrazole-3-carboxamide] yielded an IC50 of 0.0001 to 1 µM.
`CN1C(=O)[C@@H](NC(=O)c2cc(C3(c4ccccc4)CC3)[nH]n2)COc2cccnc21` [Example 73, (S)—N-(5-methyl-4-oxo-2,3,4,5-tetrahydropyrido[3,2-b][1,4]oxazepin-3-yl)-5-(1-phenylcyclopropyl)-1H-pyrazole-3-carboxamide] showed an IC50 of 0.0001 to 1 µM.
`CN1C(=O)[C@@H](NC(=O)c2nn(Cc3ccccn3)cc2F)COc2cccnc21` [Example 74, (S)-4-fluoro-N-(5-methyl-4-oxo-2,3,4,5-tetrahydropyrido[3,2-b][1,4]oxazepin-3-yl)-1-(pyridin-2-ylmethyl)-1H-pyrazole-3-carboxamide] showed an IC50 of 0.0001 to 1 µM.
In the case of `CN1C(=O)[C@H](NC(=O)c2nnc(Cc3ccccc3)[nH]2)[C@@H]2C[C@@H]2c2cccnc21` [Example 75B, 5-benzyl-N-((1aR,2R,8bS)-4-methyl-3-oxo-1,1a,2,3,4,8b-hexahydrocyclopropa[d]pyrido[2,3-b]azepin-2-yl)-4H-1,2,4-triazole-3-carboxamide], the IC50 is reported as over 3 µM.
Work on `CN1C(=O)[C@@H](NC(=O)c2nn(Cc3ccccc3)cc2F)COc2cccnc21` [Example 76, (S)-1-benzyl-4-fluoro-N-(5-methyl-4-oxo-2,3,4,5-tetrahydropyrido[3,2-b][1,4]oxazepin-3-yl)-1H-pyrazole-3-carboxamide] yielded an IC50 of 0.0001 to 1 µM.
For `CN1C(=O)[C@@H](NC(=O)c2ncc(C3(c4ccccc4)CC3)[nH]2)COc2ccccc21` [Example 78, (S)—N-(5-methyl-4-oxo-2,3,4,5-tetrahydrobenzo[b][1,4]oxazepin-3-yl)-5-(1-phenylcyclopropyl)-1H-imidazole-2-carboxamide], the IC50 was 0.0001 to 1 µM.
With `CN1C(=O)[C@@H](NC(=O)c2nc3cccc(-c4ccccc4F)c3s2)COc2ccccc21` [Example 79, (S)-7-(2-fluorophenyl)-N-(5-methyl-4-oxo-2,3,4,5-tetrahydrobenzo[b][1,4]oxazepin-3-yl)benzo[d]thiazole-2-carboxamide] the IC50 was 0.0001 to 1 µM.
`CN1C(=O)[C@@H](NC(=O)c2cc(Cc3ccccc3)[nH]n2)[C@H]2C[C@H]2c2cccnc21` [Example 80A, 5-benzyl-N-((1aS,2S,8bR)-4-methyl-3-oxo-1,1a,2,3,4,8b-hexahydrocyclopropa[d]pyrido[2,3-b]azepin-2-yl)-1H-pyrazole-3-carboxamide] showed an IC50 of 0.0001 to 1 µM.
